Reference: patent EP4667458A1 (Kanaph Therapeutics Inc., priority 2023, dated 2024)
pIC50: −log10 of the molar value.

What was measured:
KRAS^G12C::SOS1 = target: T1, KRAS^G12C::SOS1 (Homo sapiens, UniProt Q07889); assay: KRAS G12C::SOS1 protein-protein interaction (PPI) inhibition assay (HTRF binding kit)
T1 sequence (Q07889 1-1333): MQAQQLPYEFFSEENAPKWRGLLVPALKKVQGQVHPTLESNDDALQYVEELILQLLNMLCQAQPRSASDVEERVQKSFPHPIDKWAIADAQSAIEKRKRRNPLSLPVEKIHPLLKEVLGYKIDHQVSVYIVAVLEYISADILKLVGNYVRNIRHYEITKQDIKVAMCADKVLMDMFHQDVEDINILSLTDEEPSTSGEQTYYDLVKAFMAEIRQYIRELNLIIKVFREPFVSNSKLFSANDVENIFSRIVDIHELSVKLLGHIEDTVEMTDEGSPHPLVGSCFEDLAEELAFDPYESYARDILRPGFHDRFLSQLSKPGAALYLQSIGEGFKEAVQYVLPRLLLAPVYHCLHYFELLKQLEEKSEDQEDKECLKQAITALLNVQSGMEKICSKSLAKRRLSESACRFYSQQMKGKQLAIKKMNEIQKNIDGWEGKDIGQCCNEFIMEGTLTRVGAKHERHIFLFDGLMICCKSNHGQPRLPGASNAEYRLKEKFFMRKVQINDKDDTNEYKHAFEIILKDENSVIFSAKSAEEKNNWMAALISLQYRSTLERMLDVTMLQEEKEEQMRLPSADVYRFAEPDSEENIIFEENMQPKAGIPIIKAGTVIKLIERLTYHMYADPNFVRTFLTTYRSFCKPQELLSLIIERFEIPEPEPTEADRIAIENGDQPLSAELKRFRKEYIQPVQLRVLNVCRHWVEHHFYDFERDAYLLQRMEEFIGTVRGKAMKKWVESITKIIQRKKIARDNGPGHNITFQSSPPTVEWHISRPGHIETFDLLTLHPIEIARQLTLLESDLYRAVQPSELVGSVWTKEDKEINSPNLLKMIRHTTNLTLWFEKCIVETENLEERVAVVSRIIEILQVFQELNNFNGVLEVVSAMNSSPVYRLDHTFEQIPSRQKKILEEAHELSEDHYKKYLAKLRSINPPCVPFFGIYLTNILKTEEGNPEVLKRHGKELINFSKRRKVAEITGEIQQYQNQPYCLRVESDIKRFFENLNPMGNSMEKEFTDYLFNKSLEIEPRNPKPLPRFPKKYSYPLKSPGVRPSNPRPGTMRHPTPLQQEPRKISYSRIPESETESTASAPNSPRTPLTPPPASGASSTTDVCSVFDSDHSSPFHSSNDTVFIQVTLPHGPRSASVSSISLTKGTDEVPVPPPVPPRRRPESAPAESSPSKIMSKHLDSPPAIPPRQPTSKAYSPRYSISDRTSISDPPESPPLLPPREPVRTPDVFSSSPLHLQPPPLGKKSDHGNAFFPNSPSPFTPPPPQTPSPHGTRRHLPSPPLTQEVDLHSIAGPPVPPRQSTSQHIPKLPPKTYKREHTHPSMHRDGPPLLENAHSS

SOS1 = target: T2, SOS1 (Homo sapiens, UniProt Q07889); assay: SOS-catalyzed nucleotide exchange assay (HTRF, SOS1-mediated GTP loading of KRAS G12D); format: biochemical; settings: GST-KRAS G12D, HIS-SOS1cat, EDA-GTP-DY-647P1; compound 128 pM to 10 µM; read-out: SOS-catalyzed nucleotide exchange assay (IC50 range, Grade)
T2 construct: adding equal amounts of HIS-SOS1cat (160 nM; Cytoskeleton, US); His; purchased Cytoskeleton, US
T2 sequence (Q07889 564-1049 limits assumed): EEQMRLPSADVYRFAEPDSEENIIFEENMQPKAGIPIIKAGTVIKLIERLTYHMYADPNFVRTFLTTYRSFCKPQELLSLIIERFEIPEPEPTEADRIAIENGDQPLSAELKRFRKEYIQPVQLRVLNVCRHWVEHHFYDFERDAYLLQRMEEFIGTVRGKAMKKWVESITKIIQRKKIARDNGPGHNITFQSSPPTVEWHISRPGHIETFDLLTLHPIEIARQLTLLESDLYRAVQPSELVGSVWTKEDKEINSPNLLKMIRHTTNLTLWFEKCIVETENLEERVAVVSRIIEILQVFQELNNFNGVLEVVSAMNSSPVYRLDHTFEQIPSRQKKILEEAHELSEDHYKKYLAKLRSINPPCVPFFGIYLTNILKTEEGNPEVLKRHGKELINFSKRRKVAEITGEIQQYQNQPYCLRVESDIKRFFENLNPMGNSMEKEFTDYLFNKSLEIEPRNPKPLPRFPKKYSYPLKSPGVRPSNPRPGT
Outline: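 SOS1cat (HIS-tagged) preincubated 10 min at room temperature with compound (128 pM-10 µM), then GST-KRAS G12D with anti-GST terbium added; GTP loading tracked as HTRF with a DY-647P1 GTP analogue after 30 min, buffer HEPES pH 7.4. GEF-free wells for normalization; IC50 derived.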

pIC50 (KRAS^G12C::SOS1)	pIC50 (SOS1)	Structure (SMILES)
> 6.00	> 6.00	Cc1c([C@@H](C)NC(=O)c2ccc(=O)n(-c3cncc(-c4ccnn4C)c3)n2)cc(N)cc1C(F)(F)F [Example B05, N-[(1R)-1-[5-amino-2-methyl-3-(trifluoromethyl)phenyl]ethyl]-1-[5-(2-methylpyrazol-3-yl)-3-pyridyl]-6-oxo-pyridazine-3-carboxamide]
> 6.00	5.00 to 6.00	C[C@@H](NC(=O)c1ccc(=O)n(-c2ccccc2F)n1)c1cccc(I)c1F [Example 144, N-[(1R)-1-(2-fluoro-3-iodo-phenyl)ethyl]-1-(2-fluorophenyl)-6-oxo-pyridazine-3-carboxamide]
> 6.00	> 6.00	Cc1cc(C(=O)N[C@H](C)c2cc(N)cc(C(F)F)c2)nn(-c2cncc(-c3cnnn3C)c2)c1=O [Example B07, N-[(1R)-1-[3-amino-5-(difluoromethyl)phenyl]ethyl]-5-methyl-1-[5-(3-methyltriazol-4-yl)-3-pyridyl]-6-oxo-pyridizine-3-carboxamide]
> 6.00	5.00 to 6.00	C[C@@H](NC(=O)c1ccc(=O)n(-c2cccc3cc[nH]c23)n1)c1cc(N)cc(C(F)(F)F)c1 [Example 155, N-[(1R)-1-[3-amino-5-(trifluoromethyl)phenyl]ethyl]-1-(1H-indole-7-yl)-6-oxo-pyridazine-3-carboxamide]
> 6.00	> 6.00	C[C@@H](NC(=O)c1ccc(=O)n(-c2ccccc2OC(F)F)n1)c1cccc(C(F)(F)CO)c1F [Example 143, N-[(1R)-1-[3-(1,1-difluoro-2-hydroxy-ethyl)-2-fluoro-phenyl]ethyl]-1-[2-(difluoromethoxy)phenyl]-6-oxo-pyridazine-3-carboxamide]
> 6.00	> 6.00	C[C@@H](NC(=O)c1ccc(=O)n(-c2cncc(-c3cnnn3C)c2)c1)c1cccc(C(F)(F)F)c1F [Example B08, N-[(1R)-1-[2-fluoro-3-(trifluoromethyl)phenyl]ethyl]-1-[5-(3-methyltriazol-4-yl)-3-pyridyl]-6-oxo-pyridine-3-carboxamide]
> 6.00	> 6.00	COc1ccc(-n2nc(C(=O)N[C@H](C)c3cc(N)cc(C(F)(F)F)c3)ccc2=O)c(F)c1 [Example 152, N-[(1R)-1-[3-amino-5-(trifluoromethyl)phenyl]ethyl]-1-(2-fluoro-4-methoxy-phenyl)-6-oxo-pyridazine-3-carboxamide]
> 6.00	> 6.00	CCn1nncc1-c1cccc(-n2cc(C(=O)N[C@H](C)c3cccc(C(F)(F)F)c3F)ccc2=O)c1 [Example B04, N-[(R)-1-[2-fluoro-3-(trifluoromethyl)phenyl]ethyl]-1-[m-(1-ethyl-1H-1,2,3-triazol-5-yl)phenyl]-6-oxo-1,6-dihydronicotinamide]
> 6.00	> 6.00	C[C@@H](NC(=O)c1ccc(=O)n(-c2cccc(-c3ccnn3C(F)F)c2)n1)c1cc(N)cc(C(F)(F)F)c1 [Example 149, N-[(1R)-1-[3-amino-5-(trifluoromethyl)phenyl]ethyl]-1-[3-[2-(difluoromethyl)pyrazol-3-yl]phenyl]-6-oxo-pyridazine-3-carboxamide]
> 6.00	> 6.00	C[C@@H](NC(=O)c1ccc(=O)n(-c2cncc(-c3cnnn3C)c2)n1)c1cccc(C(F)F)c1F [Example B02, N-[(1R)-1-[3-(difluoromethyl)-2-fluoro-phenyl]ethyl]-1-[5-(3-methyltriazol-4-yl)-3-pyridyl]-6-oxo-pyridazine-3-carboxamide]
> 6.00	> 6.00	Cc1cc(C(=O)N[C@H](C)c2cccc(C(F)(F)F)c2F)cn(-c2cncc(-c3cnnn3C)c2)c1=O [Example B10, (R)-N-(1-(2-fluoro-3-(trifluoromethyl)phenyl)ethyl)-3-methyl-5'-(1-methyl-1H-1,2,3-triazol-5-yl)-2-oxo-2H-[1,3'-bipyridine]-5-carboxamide]
> 6.00	> 6.00	COc1ccc(-n2cc(C(=O)N[C@H](C)c3cccc(C(F)(F)CO)c3F)ccc2=O)c(F)c1OC [Example 140, N-[(1R)-1-[3-(1,1-difluoro-2-hydroxy-ethyl)-2-fluoro-phenyl]ethyl]-1-(2-fluoro-3,4-dimethoxy-phenyl)-6-oxo-pyridine-3-carboxamide]
> 6.00	> 6.00	COc1ccc(-n2nc(C(=O)N[C@H](C)c3cc(N)cc(C(F)(F)F)c3)ccc2=O)c(OC)c1 [Example 153, N-[(1R)-1-[3-amino-5-(trifluoromethyl)phenyl]ethyl]-1-(2,4-dimethoxyphenyl)-6-oxo-pyridazine-3-carboxamide]
> 6.00	> 6.00	C[C@@H](NC(=O)c1ccc(=O)n(-c2cncc(-c3cnnn3C)c2)n1)c1cccc(C(F)(F)CF)c1F [Example B09, (R)-N-(1-(2-fluoro-3-(1,1,2-trifluoroethyl)phenyl)ethyl)-1-(5-(1-methyl-1H-1,2,3-triazol-5-yl)pyridin-3-yl)-6-oxo-1,6-dihydropyridazine-3-carboxamide]
> 6.00	> 6.00	C[C@@H](NC(=O)c1ccc(=O)n(-c2cccc(F)c2)n1)c1cc(N)cc(C(F)(F)F)c1 [Example 158, N-[(1R)-1-[3-amino-5-(trifluoromethyl)phenyl]ethyl]-1-(3-fluorophenyl)-6-oxo-pyridazine-3-carboxamide]
> 6.00	> 6.00	[2H]C([2H])([2H])n1nncc1-c1cncc(-n2nc(C(=O)N[C@H](C)c3cccc(C(F)(F)F)c3F)ccc2=O)c1 [Example B11, N-[(1R)-1-[2-fluoro-3-(trifluoromethyl)phenyl]ethyl]-6-oxo-1-[5-[3-(trideuteriomethyl)triazol-4-yl]-3-pyridyl]pyridazine-3-carboxamide]
> 6.00	> 6.00	C[C@@H](NC(=O)c1ccc(=O)n(-c2cccnc2F)n1)c1cccc(C(F)(F)CO)c1F [Example 141, N-[(1R)-1-[3-(1,1-difluoro-2-hydroxy-ethyl)-2-fluorophenyl]ethyl]-1-(2-fluoro-3-pyridyl)-6-oxo-pyridazine-3-carboxamide]
> 6.00	> 6.00	COc1ccc(-n2nc(C(=O)N[C@H](C)c3cccc(C(F)(F)CO)c3F)ccc2=O)c(OC)c1 [Example 151, N-[(1R)-1-[3-(1,1-difluoro-2-hydroxy-ethyl)-2-fluoro-phenyl]ethyl]-1-(2,4-dimethoxyphenyl)-6-oxo-pyridazine-3-carboxamide]

Structure (SMILES)	pIC50 (KRAS^G12C::SOS1)	pIC50 (SOS1)
Cc1cc(C(=O)N[C@H](C)c2cc(N)cc(C(F)(F)F)c2F)nn(-c2cncc(-c3cnnn3C)c2)c1=O [Example B03, N-[(1R)-1-[5-amino-2-fluoro-3-(trifluoromethyl)phenyl]ethyl]-5-methyl-1-[5-(3-methyltriazol-4-yl)-3-pyridyl]-6-oxo-pyridazine-3-carboxamide]	> 6.00	> 6.00
